In publication PMC4076210, “Discovery of Novel AKT Inhibitors with Enhanced Anti-Tumor Effects in Combination with the MEK Inhibitor” (PLoS ONE, 2014):
Read-outs that look alike come from different tables or passages of the source.

Columns and labels:
Format in all cases: biochemical
CDK7/cyclinH/MAT1(h) = molecular target: T1, CDK7/cyclinH/MAT1(h) (Homo sapiens, UniProt P50613); assay: Kinase panel
T1 construct: purchased Millipore KinaseProfiler

CK1δ(h) = molecular target: T2, CK1δ(h) (Homo sapiens, UniProt P48730); assay: Kinase panel
T2 construct: purchased Millipore KinaseProfiler

HIPK2(h) = molecular target: T3, HIPK2(h) (Homo sapiens, UniProt Q9H2X6); assay: Kinase panel
T3 construct: purchased Millipore KinaseProfiler

Itk(h) = molecular target: T4, Itk(h) (Homo sapiens, UniProt Q08881); assay: Kinase panel
T4 construct: purchased Millipore KinaseProfiler
T4 sequence (Q08881 1-620): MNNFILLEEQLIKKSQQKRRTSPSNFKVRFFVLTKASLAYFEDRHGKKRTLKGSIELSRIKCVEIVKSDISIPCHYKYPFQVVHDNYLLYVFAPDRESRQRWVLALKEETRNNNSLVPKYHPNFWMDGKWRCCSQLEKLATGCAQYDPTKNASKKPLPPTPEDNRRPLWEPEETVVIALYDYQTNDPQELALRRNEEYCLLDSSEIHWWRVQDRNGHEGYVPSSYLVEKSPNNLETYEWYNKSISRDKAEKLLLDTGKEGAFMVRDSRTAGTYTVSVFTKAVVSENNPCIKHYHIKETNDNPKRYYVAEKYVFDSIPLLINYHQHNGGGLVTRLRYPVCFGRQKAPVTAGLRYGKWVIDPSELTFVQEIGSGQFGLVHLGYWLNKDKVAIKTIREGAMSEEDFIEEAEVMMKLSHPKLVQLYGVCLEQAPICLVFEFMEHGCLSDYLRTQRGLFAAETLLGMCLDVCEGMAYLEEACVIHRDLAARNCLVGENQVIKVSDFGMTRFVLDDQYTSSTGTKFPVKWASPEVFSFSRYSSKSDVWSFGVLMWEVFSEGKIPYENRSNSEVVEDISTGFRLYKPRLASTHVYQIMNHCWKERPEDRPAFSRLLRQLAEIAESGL

PDGFRα(D842V)(h) = molecular target: T5, PDGFRα(D842V)(h) (Homo sapiens, UniProt P16234, D842V); assay: Kinase panel
T5 construct: purchased Millipore KinaseProfiler

PKCμ(h) = molecular target: T6, PKCμ(h) (Homo sapiens, UniProt Q15139); assay: Kinase panel
T6 construct: purchased Millipore KinaseProfiler
T6 sequence (Q15139 1-912): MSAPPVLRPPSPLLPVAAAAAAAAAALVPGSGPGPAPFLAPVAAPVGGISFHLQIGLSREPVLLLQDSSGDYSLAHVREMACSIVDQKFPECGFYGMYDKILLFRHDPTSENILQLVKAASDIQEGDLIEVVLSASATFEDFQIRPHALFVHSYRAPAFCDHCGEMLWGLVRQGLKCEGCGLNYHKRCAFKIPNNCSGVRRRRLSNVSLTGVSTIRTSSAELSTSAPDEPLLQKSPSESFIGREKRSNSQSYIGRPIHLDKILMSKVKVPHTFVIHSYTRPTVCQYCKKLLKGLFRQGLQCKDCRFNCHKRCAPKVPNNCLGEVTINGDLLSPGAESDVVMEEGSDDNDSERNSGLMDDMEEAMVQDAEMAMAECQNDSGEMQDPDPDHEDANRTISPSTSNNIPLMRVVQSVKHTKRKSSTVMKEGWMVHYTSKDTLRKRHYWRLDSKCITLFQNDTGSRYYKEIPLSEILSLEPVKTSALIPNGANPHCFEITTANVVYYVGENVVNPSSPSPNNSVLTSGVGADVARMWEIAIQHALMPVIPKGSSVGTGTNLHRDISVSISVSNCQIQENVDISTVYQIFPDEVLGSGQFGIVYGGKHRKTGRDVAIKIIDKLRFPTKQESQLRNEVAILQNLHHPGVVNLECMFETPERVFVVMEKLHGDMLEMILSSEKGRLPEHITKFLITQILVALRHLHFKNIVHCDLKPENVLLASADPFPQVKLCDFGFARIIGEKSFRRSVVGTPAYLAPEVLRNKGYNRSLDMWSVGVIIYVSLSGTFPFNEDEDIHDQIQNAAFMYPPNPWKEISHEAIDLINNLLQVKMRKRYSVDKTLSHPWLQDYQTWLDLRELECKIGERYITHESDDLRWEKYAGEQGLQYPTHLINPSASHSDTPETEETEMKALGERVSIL

SAPK2a(h) = molecular target: T7, SAPK2a(h) (Homo sapiens, UniProt Q16539); assay: Kinase panel
T7 construct: purchased Millipore KinaseProfiler

TAK1(h) = molecular target: T8, TAK1(h) (Homo sapiens, UniProt O43318); assay: Kinase panel
T8 construct: purchased Millipore KinaseProfiler
T8 sequence (O43318 1-303 limits assumed): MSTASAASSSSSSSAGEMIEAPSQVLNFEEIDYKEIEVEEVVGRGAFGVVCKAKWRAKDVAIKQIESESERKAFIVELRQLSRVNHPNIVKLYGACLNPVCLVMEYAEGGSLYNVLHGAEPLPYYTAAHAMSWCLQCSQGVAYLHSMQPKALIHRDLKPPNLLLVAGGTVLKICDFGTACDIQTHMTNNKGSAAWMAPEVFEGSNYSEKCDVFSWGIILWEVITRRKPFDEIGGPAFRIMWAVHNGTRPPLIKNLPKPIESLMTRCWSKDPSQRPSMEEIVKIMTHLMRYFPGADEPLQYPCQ

Tie2(R849W)(h) = molecular target: T9, Tie2(R849W)(h) (Homo sapiens, UniProt Q02763, R849W); assay: Kinase panel
T9 construct: purchased Millipore KinaseProfiler

TSSK1(h) = molecular target: T10, TSSK1(h) (Homo sapiens, UniProt Q9BXA7); assay: Kinase panel
T10 construct: purchased Millipore KinaseProfiler
T10 sequence (Q9BXA7 1-367): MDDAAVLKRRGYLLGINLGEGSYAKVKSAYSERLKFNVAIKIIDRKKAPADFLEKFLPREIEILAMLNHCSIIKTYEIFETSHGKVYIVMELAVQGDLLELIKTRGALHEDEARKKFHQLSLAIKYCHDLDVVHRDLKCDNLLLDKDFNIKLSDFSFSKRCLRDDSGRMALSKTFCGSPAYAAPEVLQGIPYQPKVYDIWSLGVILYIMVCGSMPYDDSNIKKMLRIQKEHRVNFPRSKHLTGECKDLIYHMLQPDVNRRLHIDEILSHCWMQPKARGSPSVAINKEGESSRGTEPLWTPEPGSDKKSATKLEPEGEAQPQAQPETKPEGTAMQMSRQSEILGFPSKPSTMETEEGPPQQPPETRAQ

WNK3(h) = molecular target: T11, WNK3(h) (Homo sapiens, UniProt Q9BYP7); assay: Kinase panel
T11 construct: purchased Millipore KinaseProfiler

PKG1β = PKG1β (Homo sapiens, UniProt Q13976); assay: Kinase IC50 assay
Sequence of PKG1β (Q13976 1-686 isoform Q13976-2): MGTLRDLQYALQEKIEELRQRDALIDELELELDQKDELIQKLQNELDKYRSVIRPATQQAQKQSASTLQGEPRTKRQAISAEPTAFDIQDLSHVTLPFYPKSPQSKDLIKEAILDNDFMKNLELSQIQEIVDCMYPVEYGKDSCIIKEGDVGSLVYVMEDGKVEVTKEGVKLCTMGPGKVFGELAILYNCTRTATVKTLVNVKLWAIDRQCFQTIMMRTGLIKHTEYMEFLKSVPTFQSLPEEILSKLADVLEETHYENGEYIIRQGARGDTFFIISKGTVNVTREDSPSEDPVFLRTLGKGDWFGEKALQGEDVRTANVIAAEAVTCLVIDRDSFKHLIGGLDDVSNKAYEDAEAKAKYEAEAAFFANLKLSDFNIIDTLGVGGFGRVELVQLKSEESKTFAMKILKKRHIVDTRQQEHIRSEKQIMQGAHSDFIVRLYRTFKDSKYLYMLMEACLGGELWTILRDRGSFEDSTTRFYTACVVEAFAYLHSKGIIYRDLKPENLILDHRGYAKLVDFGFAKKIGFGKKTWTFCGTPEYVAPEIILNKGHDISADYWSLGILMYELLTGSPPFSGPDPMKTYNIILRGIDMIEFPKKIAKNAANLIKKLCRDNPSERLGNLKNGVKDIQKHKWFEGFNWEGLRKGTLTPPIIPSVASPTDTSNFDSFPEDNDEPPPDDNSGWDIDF

T5 sequence (P16234 24-1089 D842V): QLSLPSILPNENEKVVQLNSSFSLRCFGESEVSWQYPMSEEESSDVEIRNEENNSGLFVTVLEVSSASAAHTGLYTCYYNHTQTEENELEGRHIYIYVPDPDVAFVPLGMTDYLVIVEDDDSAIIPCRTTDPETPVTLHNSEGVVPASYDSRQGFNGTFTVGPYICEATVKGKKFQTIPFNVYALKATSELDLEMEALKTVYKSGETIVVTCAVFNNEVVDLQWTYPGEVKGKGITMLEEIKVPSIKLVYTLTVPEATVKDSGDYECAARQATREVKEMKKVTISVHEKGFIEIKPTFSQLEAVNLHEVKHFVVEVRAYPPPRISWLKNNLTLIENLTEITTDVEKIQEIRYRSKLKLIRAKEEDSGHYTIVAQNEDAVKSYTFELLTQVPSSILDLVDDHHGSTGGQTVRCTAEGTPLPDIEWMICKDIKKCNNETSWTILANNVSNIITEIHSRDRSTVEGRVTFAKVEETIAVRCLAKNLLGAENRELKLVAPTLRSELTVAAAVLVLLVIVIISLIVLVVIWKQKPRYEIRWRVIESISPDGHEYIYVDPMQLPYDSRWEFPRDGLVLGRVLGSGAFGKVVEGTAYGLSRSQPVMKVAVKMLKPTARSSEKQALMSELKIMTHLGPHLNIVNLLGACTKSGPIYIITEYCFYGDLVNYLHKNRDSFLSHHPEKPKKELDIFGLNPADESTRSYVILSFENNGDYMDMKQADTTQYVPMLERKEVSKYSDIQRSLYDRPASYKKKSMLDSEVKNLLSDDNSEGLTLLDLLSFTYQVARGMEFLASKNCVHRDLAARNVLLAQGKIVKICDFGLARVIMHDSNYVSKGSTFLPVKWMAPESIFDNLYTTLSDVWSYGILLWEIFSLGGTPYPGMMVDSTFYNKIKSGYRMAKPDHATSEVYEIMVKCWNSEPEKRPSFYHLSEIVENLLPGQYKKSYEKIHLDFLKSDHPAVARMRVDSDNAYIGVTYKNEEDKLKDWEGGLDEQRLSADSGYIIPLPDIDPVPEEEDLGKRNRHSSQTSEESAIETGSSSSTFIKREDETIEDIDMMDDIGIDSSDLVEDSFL
T7 sequence (Q16539 whole entry): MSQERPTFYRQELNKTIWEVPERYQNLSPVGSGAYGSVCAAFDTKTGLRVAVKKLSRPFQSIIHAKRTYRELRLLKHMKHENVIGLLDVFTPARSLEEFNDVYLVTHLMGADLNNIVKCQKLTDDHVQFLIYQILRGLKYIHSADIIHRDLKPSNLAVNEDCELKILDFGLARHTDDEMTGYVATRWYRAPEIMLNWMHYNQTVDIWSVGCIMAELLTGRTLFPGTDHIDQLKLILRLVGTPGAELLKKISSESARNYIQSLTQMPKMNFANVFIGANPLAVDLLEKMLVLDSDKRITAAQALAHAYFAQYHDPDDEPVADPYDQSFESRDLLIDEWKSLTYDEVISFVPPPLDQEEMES
T2 sequence (P48730 whole entry): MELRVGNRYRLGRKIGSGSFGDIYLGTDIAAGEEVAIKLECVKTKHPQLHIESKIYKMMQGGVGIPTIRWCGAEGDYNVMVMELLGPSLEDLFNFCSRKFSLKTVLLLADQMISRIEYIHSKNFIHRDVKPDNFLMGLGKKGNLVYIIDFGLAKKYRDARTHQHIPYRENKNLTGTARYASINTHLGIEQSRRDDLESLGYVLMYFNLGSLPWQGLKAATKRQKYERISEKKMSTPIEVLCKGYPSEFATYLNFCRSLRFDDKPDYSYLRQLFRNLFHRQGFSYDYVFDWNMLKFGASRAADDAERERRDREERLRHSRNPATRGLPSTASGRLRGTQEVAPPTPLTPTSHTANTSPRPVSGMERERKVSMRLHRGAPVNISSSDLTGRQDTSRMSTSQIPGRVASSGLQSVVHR
T9 sequence (Q02763 23-1124 R849W): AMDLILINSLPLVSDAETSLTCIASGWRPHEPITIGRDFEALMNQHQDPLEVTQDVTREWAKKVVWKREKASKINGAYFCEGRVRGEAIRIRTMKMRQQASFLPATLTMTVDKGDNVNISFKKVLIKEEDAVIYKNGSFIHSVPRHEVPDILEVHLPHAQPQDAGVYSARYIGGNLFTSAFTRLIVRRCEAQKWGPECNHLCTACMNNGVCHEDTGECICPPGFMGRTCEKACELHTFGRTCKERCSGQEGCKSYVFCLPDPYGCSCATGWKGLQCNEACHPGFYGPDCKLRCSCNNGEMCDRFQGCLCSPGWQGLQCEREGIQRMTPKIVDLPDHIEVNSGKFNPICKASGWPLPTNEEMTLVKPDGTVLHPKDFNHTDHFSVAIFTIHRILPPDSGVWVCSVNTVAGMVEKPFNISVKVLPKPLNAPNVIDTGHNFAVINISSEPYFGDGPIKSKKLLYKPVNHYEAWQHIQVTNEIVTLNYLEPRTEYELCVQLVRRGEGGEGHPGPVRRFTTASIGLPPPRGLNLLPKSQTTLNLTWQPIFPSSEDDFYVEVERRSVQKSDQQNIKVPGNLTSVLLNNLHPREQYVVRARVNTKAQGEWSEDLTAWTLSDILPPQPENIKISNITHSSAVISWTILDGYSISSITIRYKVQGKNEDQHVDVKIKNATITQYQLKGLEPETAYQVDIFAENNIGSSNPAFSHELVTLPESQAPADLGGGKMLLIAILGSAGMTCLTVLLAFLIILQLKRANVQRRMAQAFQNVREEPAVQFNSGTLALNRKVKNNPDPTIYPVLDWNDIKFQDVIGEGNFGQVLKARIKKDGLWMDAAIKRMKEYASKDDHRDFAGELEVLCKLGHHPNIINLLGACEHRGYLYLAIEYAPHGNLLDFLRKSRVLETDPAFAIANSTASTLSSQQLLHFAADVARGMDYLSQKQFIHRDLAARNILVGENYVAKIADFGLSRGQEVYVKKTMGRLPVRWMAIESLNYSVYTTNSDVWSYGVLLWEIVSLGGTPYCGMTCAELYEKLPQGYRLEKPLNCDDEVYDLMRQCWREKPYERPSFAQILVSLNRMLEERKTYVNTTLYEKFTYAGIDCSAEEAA
T1 sequence (P50613 whole entry): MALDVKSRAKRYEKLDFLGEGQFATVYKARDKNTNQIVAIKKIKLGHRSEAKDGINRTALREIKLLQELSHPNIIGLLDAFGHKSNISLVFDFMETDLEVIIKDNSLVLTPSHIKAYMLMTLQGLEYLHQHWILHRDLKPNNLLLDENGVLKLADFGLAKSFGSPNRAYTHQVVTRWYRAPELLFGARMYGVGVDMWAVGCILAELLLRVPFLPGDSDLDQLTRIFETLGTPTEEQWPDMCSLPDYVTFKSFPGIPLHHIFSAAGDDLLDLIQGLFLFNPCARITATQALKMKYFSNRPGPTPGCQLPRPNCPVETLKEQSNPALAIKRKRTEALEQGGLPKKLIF
T1 sequence (P51946 whole entry partner): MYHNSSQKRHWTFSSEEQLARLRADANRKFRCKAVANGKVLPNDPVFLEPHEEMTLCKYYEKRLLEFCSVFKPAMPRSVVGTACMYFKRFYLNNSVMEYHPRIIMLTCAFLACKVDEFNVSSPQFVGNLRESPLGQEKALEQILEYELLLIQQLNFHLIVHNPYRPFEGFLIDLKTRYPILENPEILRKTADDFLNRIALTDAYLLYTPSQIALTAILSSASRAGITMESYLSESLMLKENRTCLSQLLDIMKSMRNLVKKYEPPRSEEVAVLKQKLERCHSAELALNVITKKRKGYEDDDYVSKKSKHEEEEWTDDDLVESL
T1 sequence (P51948 whole entry partner): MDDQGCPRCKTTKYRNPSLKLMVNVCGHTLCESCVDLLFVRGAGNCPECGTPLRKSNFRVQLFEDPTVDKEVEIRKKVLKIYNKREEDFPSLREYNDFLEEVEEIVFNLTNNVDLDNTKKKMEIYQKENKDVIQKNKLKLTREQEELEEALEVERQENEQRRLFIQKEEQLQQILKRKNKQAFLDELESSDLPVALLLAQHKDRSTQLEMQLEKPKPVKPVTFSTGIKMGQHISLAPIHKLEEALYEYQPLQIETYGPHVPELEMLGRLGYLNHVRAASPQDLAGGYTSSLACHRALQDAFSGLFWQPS

Cn1ncc(Cl)c1-c1cc(C(=O)N[C@H](CN)Cc2cccc(F)c2)sc1Cl [GSK2110183]
inhibition at 0.5 µM (CDK7/cyclinH/MAT1(h)): 62%
inhibition at 10 µM (CDK7/cyclinH/MAT1(h)): 96%
inhibition at 0.5 µM (CK1δ(h)): -1%
inhibition at 10 µM (CK1δ(h)): 49%
inhibition at 0.5 µM (HIPK2(h)): 25%
inhibition at 10 µM (HIPK2(h)): 87%
inhibition at 0.5 µM (Itk(h)): 0%
inhibition at 10 µM (Itk(h)): 2%
inhibition at 0.5 µM (PDGFRα(D842V)(h)): -16%
inhibition at 10 µM (PDGFRα(D842V)(h)): -4%
inhibition at 0.5 µM (PKCμ(h)): 27%
inhibition at 10 µM (PKCμ(h)): 81%
inhibition at 0.5 µM (SAPK2a(h)): -13%
inhibition at 10 µM (SAPK2a(h)): -8%
inhibition at 0.5 µM (TAK1(h)): -3%
inhibition at 10 µM (TAK1(h)): 1%
inhibition at 0.5 µM (Tie2(R849W)(h)): -8%
inhibition at 10 µM (Tie2(R849W)(h)): -9%
inhibition at 0.5 µM (TSSK1(h)): 16%
inhibition at 10 µM (TSSK1(h)): 84%
inhibition at 0.5 µM (WNK3(h)): 0%
inhibition at 10 µM (WNK3(h)): 16%
IC50 (PKG1β): 4 nM

Cn1ncc(Cl)c1-c1cc(C(=O)N[C@H](CN)Cc2ccc(F)c(F)c2)oc1Cl [GSK2141795]
inhibition at 0.5 µM (CDK7/cyclinH/MAT1(h); 0.5 µM, read-out: % Inhibition): 64%
inhibition at 10 µM (CDK7/cyclinH/MAT1(h); 10 µM, read-out: % Inhibition): 101%
inhibition at 0.5 µM (CK1δ(h); 0.5 µM, read-out: % Inhibition): -2%
inhibition at 10 µM (CK1δ(h); 10 µM, read-out: % Inhibition): 63%
inhibition at 0.5 µM (HIPK2(h); 0.5 µM, read-out: % Inhibition): 26%
inhibition at 10 µM (HIPK2(h); 10 µM, read-out: % Inhibition): 83%
inhibition at 0.5 µM (Itk(h); 0.5 µM, read-out: % Inhibition): -15%
inhibition at 10 µM (Itk(h); 10 µM, read-out: % Inhibition): -7%
inhibition at 0.5 µM (PDGFRα(D842V)(h); 0.5 µM, read-out: % Inhibition): -5%
inhibition at 10 µM (PDGFRα(D842V)(h); 10 µM, read-out: % Inhibition): 15%
inhibition at 0.5 µM (PKCμ(h); 0.5 µM, read-out: % Inhibition): 37%
inhibition at 10 µM (PKCμ(h); 10 µM, read-out: % Inhibition): 91%
inhibition at 0.5 µM (SAPK2a(h); 0.5 µM, read-out: % Inhibition): -7%
inhibition at 10 µM (SAPK2a(h); 10 µM, read-out: % Inhibition): -3%
inhibition at 0.5 µM (TAK1(h); 0.5 µM, read-out: % Inhibition): -10%
inhibition at 10 µM (TAK1(h); 10 µM, read-out: % Inhibition): -10%
inhibition at 0.5 µM (Tie2(R849W)(h); 0.5 µM, read-out: % Inhibition): -8%
inhibition at 10 µM (Tie2(R849W)(h); 10 µM, read-out: % Inhibition): 11%
inhibition at 0.5 µM (TSSK1(h); 0.5 µM, read-out: % Inhibition): 21%
inhibition at 10 µM (TSSK1(h); 10 µM, read-out: % Inhibition): 83%
inhibition at 0.5 µM (WNK3(h); 0.5 µM, read-out: % Inhibition): -2%
inhibition at 10 µM (WNK3(h); 10 µM, read-out: % Inhibition): 1%
IC50 (PKG1β): < 1 nM
